Test results: PMC8584244 (International Journal of Molecular Sciences, 2021)
In brackets after ≈: the same amount, converted by molar mass. Read-outs that look alike come from different tables or passages of the source.

Experiments:
[1] = tested on: H. pylori ATCC43504; assay: MIC and MBC by broth micro-dilution with alamarBlue; type: cell-based; details: Helicobacter pylori
Experimental: H. pylori colonies were collected and inoculated in Brucella Broth (BB; Oxoid Ltd., Hampshire, UK) added with 2% (v/v) of foetal bovine serum (FBS; Sigma Aldrich, Milan, Italy). […] Oxoid Ltd., Hampshire, UK). […] The MIC was determined by the broth micro-dilution method, following the guidelines of the Clinical and Laboratory Standards Institute. […] Carvacrol and thymol were resuspended in dimethyl sulfoxide (DMSO, Sigma-Aldrich, Milan, Italy) and were diluted in the liquid culture medium described above. […] The controls consisted of: (I) H. pylori broth culture; (II) BB plus 2% (v/v) of FBS, with the addition of the two CA inhibitors or amoxicillin at different concentrations; (III) just BB plus 2% (v/v) of FBS. Three independent experiments were performed in triplicate. The plates were then incubated at 37 °C for 72 h under microaerophilic conditions. […] AlamarBlue was added at 10% in each well, following the manufacturer instructions, and the plates were placed in an incubator for 4 h at 37 °C in microaerophilic conditions. After the incubation, the percentage of alamarBlue reduction of treated and untreated samples was determined, as previously described. The minimum bactericidal concentration (MBC) was determined by using the same wells stained with alamarBlue. Briefly, 100 μL of the bacterial suspensions, taken from the blue-violet wells, were seeded on the selected agar plates and incubated at 37 °C for 3–5 days in microaerophilic conditions.

[2] = tested on: L. acidophilus ATCC SD5214; assay: MIC and MBC by broth microdilution in MRSB; type: cell-based; details: Lactobacillus acidophilus
[3] = tested on: L. rhamnosus GG ATCC 53103; assay: MIC and MBC by broth microdilution in MRSB; type: cell-based, Lactobacillus rhamnosus; details: Lacticaseibacillus rhamnosus
[4] = tested on: L. reuteri DSM 17938; assay: MIC and MBC by broth microdilution in MRSB; type: cell-based, Lactobacillus reuteri; details: Limosilactobacillus reuteri
[5] = tested on: H. pylori ATCC43504 biofilm; assay: antibiofilm activity (alamarBlue, CFU count, crystal violet, Live/Dead fluorescence microscopy); type: cell-based, Helicobacter pylori; details: for CFU count of biofilm / inhibition of H. pylori biofilm development: sub-MIC (carvacrol, thymol 64 µg/mL; amoxicillin 0.016 µg/mL); for biofilm observed by fluorescence microscopy (Live/Dead): sub-MIC treated samples, 72 h of incubation
Experimental: The CA inhibitors and amoxicillin were diluted in liquid culture medium consisting of BB supplemented with 2% (v/v) of FBS and 0.3% (w/v) of glucose. […] The controls consisted of: […] The antibiofilm assay was performed in 96-well flat bottom microtiter plates (Eppendorf, Hamburg, Germany). The biofilm formation in the controls and treated samples was evaluated in 35 mm Petri dishes (Eppendorf, Hamburg, Germany) stained with Live/Dead staining and visualized by fluorescence microscope. Three independent experiments were performed in triplicate. The plates were incubated at 37 °C for 72 h under microaerophilic conditions. After 72 h of incubation, the minimum biofilm inhibitory concentration (MBIC) was determined through the alamarBlue assay, the CFU count, and the crystal violet (CV) assay (Sigma Aldrich, St. Louis, MO, USA). In detail, at the end of the incubation, the non-adherent cells, corresponding to the planktonic supernatant, were removed, and the biofilms were washed with 100 µL of DPBS (Sigma Aldrich, St. Louis, MO, USA). AlamarBlue was diluted to 10% in the selected culture medium, and 100 µL was added to each sample in the wells. The samples were incubated for 4 h at 37 °C in microaerophilic conditions, and subsequently the percentage of alamarBlue reduction was determined. The CFU count was carried out starting from the wells stained with alamarBlue. […] Serial dilutions of the stock were performed in DPBS, plated on the selected agar, and incubated at 37 °C under microaerophilic conditions for 3–5 days. The antibiofilm activity was also determined through crystal violet staining following the procedure indicated. Then, the absorbance at 590 nm was measured, and the percentage of biofilm biomass, normalized to the control, was determined. […] The biofilms developed in 35 mm Petri dishes were stained with Live/Dead™ BacLight™ Bacterial Viability Kit (Life Technologies Carlsbad, CA, USA) as previously reported and immediately visualized at the fluorescence microscope.

[6] = tested on: H. pylori ATCC43504 planktonic and biofilm phenotypes; type: cell-based, Helicobacter pylori
[7] = tested on: H. pylori; details: Helicobacter pylori
[8] = tested on: H. pylori; assay: flow cytometry detection of cell viability (Live/Dead BacLight); details: sub-MIC treated samples, SYTO 9/propidium iodide
[9] = target: (UniProt Q9ZK30); assay: biochemical; design: species or system Helicobacter pylori; details: read-out: Ki HpCAα
Chain of (UniProt Q9ZK30) (Q9ZK30 19-247 limits assumed): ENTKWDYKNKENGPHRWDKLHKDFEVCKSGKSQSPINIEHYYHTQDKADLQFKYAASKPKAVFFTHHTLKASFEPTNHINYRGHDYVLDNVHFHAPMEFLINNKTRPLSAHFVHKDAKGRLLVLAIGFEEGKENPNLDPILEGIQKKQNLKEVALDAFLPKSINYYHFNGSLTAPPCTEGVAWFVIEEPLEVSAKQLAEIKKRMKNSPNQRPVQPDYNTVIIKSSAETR

[10] = target: T1, HpCAβ (Helicobacter pylori, UniProt O24855); assay: biochemical; details: mean from three assays, errors ±5–10%
T1 sequence (O24855 1-221): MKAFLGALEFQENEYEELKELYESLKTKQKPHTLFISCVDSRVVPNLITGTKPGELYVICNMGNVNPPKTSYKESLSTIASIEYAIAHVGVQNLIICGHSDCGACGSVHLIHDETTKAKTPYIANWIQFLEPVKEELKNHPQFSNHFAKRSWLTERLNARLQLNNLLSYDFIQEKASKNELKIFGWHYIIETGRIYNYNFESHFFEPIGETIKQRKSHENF

[11] = target: PgiCAβ (Porphyromonas gingivalis, UniProt B2RL07); assay: stopped-flow CO2 hydrase assay, PgiCAβ; type: biochemical
Chain of PgiCAβ (B2RL07 19-242): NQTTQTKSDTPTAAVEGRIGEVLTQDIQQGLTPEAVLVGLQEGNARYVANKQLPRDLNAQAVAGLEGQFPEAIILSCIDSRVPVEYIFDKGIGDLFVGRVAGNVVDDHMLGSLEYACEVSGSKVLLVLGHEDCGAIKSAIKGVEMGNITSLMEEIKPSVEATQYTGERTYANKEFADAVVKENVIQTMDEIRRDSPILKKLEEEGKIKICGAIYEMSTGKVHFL

[12] = target: SmuCA (Streptococcus mutans, UniProt Q8DVY1); assay: stopped-flow CO2 hydrase assay, SmuCA; type: biochemical
Chain of SmuCA (Q8DVY1 1-166): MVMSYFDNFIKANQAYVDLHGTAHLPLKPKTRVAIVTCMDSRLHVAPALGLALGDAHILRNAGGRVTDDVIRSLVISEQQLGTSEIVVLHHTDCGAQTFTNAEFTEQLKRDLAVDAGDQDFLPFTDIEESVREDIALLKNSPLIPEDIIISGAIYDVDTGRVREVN

[13] = target: MgCA (Malassezia globosa, UniProt A8Q1N3); assay: stopped-flow CO2 hydrase assay, MgCA; type: biochemical
Chain of MgCA (A8Q1N3 1-241): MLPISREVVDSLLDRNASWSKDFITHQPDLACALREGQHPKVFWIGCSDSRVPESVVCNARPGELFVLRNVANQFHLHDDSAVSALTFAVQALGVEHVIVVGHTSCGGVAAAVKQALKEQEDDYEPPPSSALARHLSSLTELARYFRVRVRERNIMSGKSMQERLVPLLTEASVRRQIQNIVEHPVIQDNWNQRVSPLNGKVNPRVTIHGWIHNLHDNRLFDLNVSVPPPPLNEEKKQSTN

[14] = tested on: several reference and clinical H. pylori strains; design: method as in PMID 33228095, PMID 33805064; details: cited from earlier work
[15] = tested on: AGS cells; design: method as in PMID 33228095, PMID 33805064; details: read-out: IC50 against AGS cells; cited from earlier work
[16] = target: T1, HpCAβ; details: both HpCAs; cited from earlier work
[17] = tested on: H. pylori ATCC43504/NCTC11637; details: characterisation of reference strain ATCC43504/NCTC11637; no reference given; cited from earlier work
[18] = target: T2, hCA I (Homo sapiens, UniProt P00915); assay: stopped-flow CO2 hydrase assay, hCA I; type: biochemical
T2 construct: made in house; host or cells: Escherichia coli (DE3)
T2 sequence (P00915 whole entry): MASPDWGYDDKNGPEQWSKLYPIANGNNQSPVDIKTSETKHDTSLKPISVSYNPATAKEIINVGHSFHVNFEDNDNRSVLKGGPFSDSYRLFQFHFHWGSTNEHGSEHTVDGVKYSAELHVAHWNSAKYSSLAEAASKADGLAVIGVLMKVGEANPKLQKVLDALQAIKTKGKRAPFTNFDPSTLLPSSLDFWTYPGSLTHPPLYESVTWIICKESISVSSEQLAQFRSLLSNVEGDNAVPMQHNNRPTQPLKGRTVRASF

[19] = target: T3, hCA II (Homo sapiens, UniProt P00918); assay: stopped-flow CO2 hydrase assay, hCA II; type: biochemical
T3 construct: made in house; host or cells: Escherichia coli (DE3)

[20] = target: T4, hCA VI (Homo sapiens, UniProt P23280); assay: stopped-flow CO2 hydrase assay, hCA VI; type: biochemical
T4 construct: made in house; host or cells: Escherichia coli (DE3)
T4 sequence (P23280 18-308): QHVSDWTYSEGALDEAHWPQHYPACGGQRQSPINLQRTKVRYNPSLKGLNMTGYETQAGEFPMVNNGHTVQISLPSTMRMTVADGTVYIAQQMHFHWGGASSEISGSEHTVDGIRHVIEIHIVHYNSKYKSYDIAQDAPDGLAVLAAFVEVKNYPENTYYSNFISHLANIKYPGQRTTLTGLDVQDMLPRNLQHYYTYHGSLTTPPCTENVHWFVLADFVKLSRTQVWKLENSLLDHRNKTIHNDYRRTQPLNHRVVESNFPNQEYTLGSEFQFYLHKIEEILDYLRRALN

[21] = H. pylori ATCC43504, 72 h, microaerophilic, read-out: MIC
[22] = H. pylori ATCC43504, read-out: MBC
[23] = ATCCSD5214, L. acidophilus ATCC SD5214, 24 h, anaerobic, read-out: MIC
[24] = ATCCSD5214, L. acidophilus ATCC SD5214, read-out: MBC
[25] = ATCC53103, L. rhamnosus GG ATCC 53103, 24 h, anaerobic, read-out: MIC
[26] = ATCC53103, L. rhamnosus GG ATCC 53103, read-out: MBC
[27] = DSM17938, L. reuteri DSM 17938, 24 h, anaerobic, read-out: MIC
[28] = DSM17938, L. reuteri DSM 17938, read-out: MBC
[29] = Planktonic T (treated with sub-MIC concentration)
[30] = biofilm phenotype, sub-MIC concentration
[31] = planktonic phenotype, sub-MIC concentration

| SMILES | MIC [1, 21] [µg/mL] | MBC [1, 22] [µg/mL] | MIC [2, 23] [µg/mL] | MBC [2, 24] [µg/mL] | MIC [3, 25] [µg/mL] | MBC [3, 26] [µg/mL] | MIC [4, 27] [µg/mL] | MBC [4, 28] [µg/mL] | CFU count of biofilm ([5]; 72 h) | inhibition of H. pylori biofilm development ([5]; 72 h) | biofilm observed by fluorescence microscopy (Live/Dead) [5] | % OMV eDNA+/Total OMVs [6, 29] [%] | pOMV eDNA+ count versus untreated [6, 31] | total pOMVs count versus untreated [6, 31] | viability (flow cytometry) [7] | live cells (flow cytometry) [8] | Ki [10] [µM] | Ki [11] [µM] | Ki [12] [µM] | Ki [13] [µM] | also measured |
| --- | --- | --- | --- | --- | --- | --- | --- | --- | --- | --- | --- | --- | --- | --- | --- | --- | --- | --- | --- | --- | --- |
| CC1(C)S[C@@H]2[C@H](NC(=O)[C@H](N)c3ccc(O)cc3)C(=O)N2[C@H]1C(=O)O [amoxicillin, reference compound] | 0.032 (≈ 0.0876 µM) | 0.032 (≈ 0.0876 µM) | 0.25 (≈ 0.684 µM) | 0.25 (≈ 0.684 µM) | 1 (≈ 2.74 µM) | 1 (≈ 2.74 µM) | 16 (≈ 43.8 µM) | 64 (≈ 175 µM) | 1.92 × 10^7 CFUs | did not inhibit H. pylori biofilm formation | well-structured biofilm with some dead cells | 16.52 | decrease | decrease | around 64% | 3.18 × 10^6 live cells/mL |  |  |  |  | % OMV eDNA+/Total OMVs ([6]; Biofilm T (treated with sub-MIC concentration)): 36.09%; bOMV eDNA+ versus untreated [6, 30]: no differences; total bOMVs versus untreated [6, 30]: no differences |
| Cc1ccc(C(C)C)cc1O [carvacrol] |  |  |  |  |  |  |  |  | No CFUs were observed | ability to inhibit the development of the H. pylori mature biofilm | no biofilm formation | 32.53 |  |  |  | 3.80 × 10^4 live cells/mL | 13.3 | 28 | 86.6 | 6.8 | Ki [9]: 8.4 µM; MBC ([1]; ATCC43504): 256 µg/mL (≈ 1700 µM); MIC ([1]; ATCC43504, 72 h): 128 µg/mL (≈ 852 µM); MBC ([2]; ATCCSD5214): > 16000 µg/mL; MIC ([2]; ATCCSD5214, 24 h): > 16000 µg/mL; MBC ([3]; ATCC53103): > 16000 µg/mL; MIC ([3]; ATCC53103, 24 h): > 16000 µg/mL; MBC ([4]; DSM17938): > 8000 µg/mL; MIC ([4]; DSM17938): 8000 µg/mL (≈ 53300 µM); MIC ([4]; DSM17938, 24 h): 8000 µg/mL (≈ 53300 µM); biofilm biomass percentage (crystal violet) versus untreated samples [5]: significantly lower; percentage of alamarBlue reduction in respect to the corresponding controls [5]: about 80%; pOMV eDNA+ count versus untreated [6]: no differences were found; total pOMVs count versus untreated [6]: lower count; MIC range [14]: 16 to 64 µg/mL; IC50 [15]: 300 ± 6.5 µM; viability (flow cytometry) [8]: 35% |
| NC(N)=Nc1nc(CSCCC(N)=NS(N)(=O)=O)cs1 [famotidine] |  |  |  |  |  |  |  |  |  |  |  |  |  |  |  |  |  |  |  |  | inhibitory profile toward HpCAβ [16]: nanomolar range |
| Cc1ncc([N+](=O)[O-])n1CCO [metronidazole] |  |  |  |  |  |  |  |  |  |  |  |  |  |  |  |  |  |  |  |  | MIC range [17]: 64 to 256 µg/mL |
| Cc1ccc(C(C)C)c(O)c1 [thymol] | 128 (≈ 852 µM) | 256 (≈ 1700 µM) | > 16000 | > 16000 | > 16000 | > 16000 | 4000 (≈ 26600 µM) | > 4000 | No CFUs were observed | ability to inhibit the development of the H. pylori mature biofilm | no biofilm formation | 35.47 | significative difference | significative difference | around 32% | 3.00 × 10^5 live cells/mL | 3.4 | 48.9 | 84.9 | > 100 | Ki [18]: > 100 µM; Ki [19]: > 100 µM; Ki [20]: > 100 µM; MIC ([4]; DSM17938, L. reuteri DSM 17938, text, read-out: MIC): 4000 µg/mL (≈ 26600 µM); biofilm biomass percentage (crystal violet) versus untreated samples ([5]; sub-MIC 64 µg/mL, 72 h): significantly lower; percentage of alamarBlue reduction in respect to the corresponding controls ([5]; sub-MIC 64 µg/mL, biofilm, 72 h): ~85%; MIC range [14]: 64 to 128 µg/mL; IC50 [15]: 200 ± 6.5 µM |
